Measured values from US6720331B2, “1-substituted 1,2,3,4-tetrahydro-β-carboline and 3,4-dihydro-β-carboline and analogs as antitumor agents” (National Sun Yat-sen University, priority 2001, dated 2004).

Assays:
[1] = system: U-937 (histiocytic lymphoma); assay: alamarBlue anti-proliferation assay, Lymphoma U-937; assay type: cell-based, human; details: for Percent Growth (Mean ± SEM, n = 2): 72 hour
Description: (§1) The growth effects of compound 29 was tested on 8 different human tumour cell lines. Changes in cell proliferation based on the ability of viable cells to cause alamar Blue to change from its oxidized (non-fluorescent, blue) to a reduced (fluorescent, red) form were evaluated. With the results obtained from the alamarBlue reaction, cell proliferation was quantified and metabolic activity of viable cells examined. Test compound, (29), was tested for its effect on the proliferation of 8 different human tumor cell lines at five final assay concentrations from 100 to 0.01 μM through serial 10-fold dilutions, respectively.
(§2) Compound 29 was dissolved in 100% ethanol and then diluted with Phosphate Buffer Saline (PBS, pH=7.4) to obtain initial working solutions of 10000, 1000, 100, 10 and 1 μM in 40% ethanol. In testing, 100-fold dilution was made in culture media to get final assay concentrations of 100, 10, 1, 0.1 and 0.01 μM in 0.4% of ethanol.
(§3) Aliquots of 100 μl of cell suspension (about 2.5-5×10^3/well) were placed in 96well microtiter plates in an atmosphere of 5% CO2 at 37° C. After 24 hours, 100 μl of growth medium, 2 μL of test solution or vehicle (40% DMSO), was added respectively per well in duplicate for an additional 72 hour incubation. Thus, the final concentration of DMSO was 0.4%. The test compound was evaluated at concentrations of 100, 10, 1, 0.1 and 0.01 μM. At the end of the incubation, 20 μL of alamarBlue 75% reagent was added to each well for another 6-hour incubation before detection of cell viability by fluorescent intensity. Fluorescent intensity was measured using a Spectrafluor Plus plate reader with excitation at 530 nm and emission at 590 nm.
(§4) PG(%)=100×(Mean Ftest−Mean Ftime0)/(Mean Fctrl−Mean Ftime0).
(§5) PG(%)=100×(Mean Ftest−Mean Ftime0)/(Mean Ftime0−Mean Fblank)
(§6) A decrease of 50% or more (≧50%) in fluorescent intensity relative to vehicle-treated control indicated significant cytostatic or cytotoxic activity, and a semi-quantitative IC50, TGI and LC50 were then determined by nonlinear regression using GraphPad Prism (GraphPad Software, U.S.A.).
(§7) IC50 (50% Inhibition Concentration): Test Compound concentration at which the increase from time0 in the number or mass of treated cells was only 50% as much as the corresponding increase in the vehicle-control at the end of experiment.
(§8) TGI (Total Growth Inhibition): Test compound concentration at which the number or mass of treated cells at the end of the experiment was equal to that at time0.
(§9) LC50 (50% Lethal Concentration): Test compound concentration at which the number of mass of treated cells at the end of the experiment was half that at time0.

[2] = system: T47D (breast ductal carcinoma); assay: alamarBlue anti-proliferation assay, Breast T47D; assay type: cell-based, human; details: 72 hour
Description: as §1, §2, §3, §4, §5, §6, §7, §8, §9

[3] = system: A-549 (human lung adenocarcinoma); assay: Growth inhibition of tumor cell line A-549 (Table 1); assay type: cell-based; details: 6 day drug exposure; columns A/B = scaffold type
[4] = system: HepG2 (hepatoblastoma, liver); assay: alamarBlue anti-proliferation assay, Liver HepG2; assay type: cell-based, human; details: for Percent Growth (Mean ± SEM, n = 2): 72 hour
Description: as §1, §2, §3, §4, §5, §6, §7, §8, §9

PC-6 (lung carcinoma) = assay: alamarBlue anti-proliferation assay, Lung PC-6; assay type: cell-based, human; details: for Percent Growth (Mean ± SEM, n = 2): 72 hour
Description: as §1, §2, §3, §4, §5, §6, §7, §8, §9

[5] = system: MCF-7 (breast adenocarcinoma); assay: alamarBlue anti-proliferation assay, Breast MCF-7; assay type: cell-based, human; details: for Percent Growth (Mean ± SEM, n = 2): 72 hour
Description: as §1, §2, §3, §4, §5, §6, §7, §8, §9

[6] = system: KB-16 (human nasopharyngeal carcinoma); assay: Growth inhibition of tumor cell line KB-16 (Table 1); assay type: cell-based; details: 3 day drug exposure; columns A/B = scaffold type
[7] = system: HT-29 (human colon adenocarcinoma); assay: Growth inhibition of tumor cell line HT-29 (Table 1); assay type: cell-based; details: 6 day drug exposure; columns A/B = scaffold type
[8] = system: HL-60 (promyelocytic leukemia); assay: alamarBlue anti-proliferation assay, Leukemia HL-60; assay type: cell-based, human; details: for Percent Growth (Mean ± SEM, n = 2): 72 hour
Description: as §1, §2, §3, §4, §5, §6, §7, §8, §9

[9] = system: HT-29 (colon adenocarcinoma); assay: alamarBlue anti-proliferation assay, Colon HT-29; assay type: cell-based, human; details: for Percent Growth (Mean ± SEM, n = 2): 72 hour
Description: as §1, §2, §3, §4, §5, §6, §7, §8, §9

[10] = system: PC-3 (prostate adenocarcinoma); assay: alamarBlue anti-proliferation assay, Prostate PC-3; assay type: cell-based, human; details: for Percent Growth (Mean ± SEM, n = 2): 72 hour
Description: as §1, §2, §3, §4, §5, §6, §7, §8, §9

P-388 (murine leukemia) = assay: Growth inhibition of tumor cell line P-388 (Table 1); assay type: cell-based; details: 3 day drug exposure; columns A/B = scaffold type

CCn1c2ccccc2c2cc(C3=NCCc4c3[nH]c3ccccc43)ccc21 [Compound 29, 1-(9′-Ethyl-3′-carbazole)-3,4-dihydro-β-carboline]
Percent Growth (Mean ± SEM, n = 2) ([1]; U-937, 0.01 μM): 103 ± 3% | Percent Growth (Mean ± SEM, n = 2) ([1]; U-937, 0.1 μM): 97 ± 6% | Percent Growth (Mean ± SEM, n = 2) ([1]; U-937, 1 μM): 90 ± 2% | Percent Growth (Mean ± SEM, n = 2) ([1]; U-937, 10 μM): −3 ± 4% | Percent Growth (Mean ± SEM, n = 2) ([1]; U-937, 100 μM): −93 ± 0% | Estimated TGI (Total Growth Inhibition) ([1]; U-937, 72 hour, semi-quantitative): 7.9 µM | IC50 ([1]; U-937, 72 hour, semi-quantitative, read-out: Estimated IC50 (50% Inhibition Concentration)): 3.5 µM | LC50 (50% lethal concentration) ([1]; U-937, 72 hour, semi-quantitative, read-out: Estimated cIC50 (footnote c: LC50, 50% Lethal Concentration)): 18.3 µM | Percent Growth (Mean ± SEM, n = 2) ([2]; 0.01 μM): 92 ± 2% | Percent Growth (Mean ± SEM, n = 2) ([2]; 0.1 μM): 88 ± 6% | Percent Growth (Mean ± SEM, n = 2) ([2]; 1 μM): 89 ± 3% | Percent Growth (Mean ± SEM, n = 2) ([2]; 10 μM): 25 ± 3% | Percent Growth (Mean ± SEM, n = 2) ([2]; 100 μM): −100 ± 4% | Estimated TGI (Total Growth Inhibition) ([2]; semi-quantitative): 10.8 µM | IC50 ([2]; semi-quantitative, read-out: Estimated IC50 (50% Inhibition Concentration)): 6 µM | LC50 (50% lethal concentration) ([2]; semi-quantitative, read-out: Estimated cIC50 (footnote c: LC50, 50% Lethal Concentration)): 19.2 µM | IC50, concentration inhibiting 50% of the growth of A-549 [3]: <1 ng/mL | Percent Growth (Mean ± SEM, n = 2) ([4]; HepG2, 0.01 μM): 106 ± 2% | Percent Growth (Mean ± SEM, n = 2) ([4]; HepG2, 0.1 μM): 96 ± 11% | Percent Growth (Mean ± SEM, n = 2) ([4]; HepG2, 1 μM): 81 ± 4% | Percent Growth (Mean ± SEM, n = 2) ([4]; HepG2, 10 μM): −27 ± 7% | Percent Growth (Mean ± SEM, n = 2) ([4]; HepG2, 100 μM): −100 ± 3% | Estimated TGI (Total Growth Inhibition) ([4]; HepG2, 72 hour, semi-quantitative): 5.2 µM | IC50 ([4]; HepG2, 72 hour, semi-quantitative, read-out: Estimated IC50 (50% Inhibition Concentration)): 2.2 µM | LC50 (50% lethal concentration) ([4]; HepG2, 72 hour, semi-quantitative, read-out: Estimated cIC50 (footnote c: LC50, 50% Lethal Concentration)): 12.5 µM | Percent Growth (Mean ± SEM, n = 2) (PC-6 (lung carcinoma); PC-6, 0.01 μM): 101 ± 1% | Percent Growth (Mean ± SEM, n = 2) (PC-6 (lung carcinoma); PC-6, 0.1 μM): 97 ± 5% | Percent Growth (Mean ± SEM, n = 2) (PC-6 (lung carcinoma); PC-6, 1 μM): 95 ± 5% | Percent Growth (Mean ± SEM, n = 2) (PC-6 (lung carcinoma); PC-6, 10 μM): 24 ± 2% | Percent Growth (Mean ± SEM, n = 2) (PC-6 (lung carcinoma); PC-6, 100 μM): −79 ± 11% | Estimated TGI (Total Growth Inhibition) (PC-6 (lung carcinoma); PC-6, 72 hour, semi-quantitative): 12.5 µM | IC50 (PC-6 (lung carcinoma); PC-6, 72 hour, semi-quantitative, read-out: Estimated IC50 (50% Inhibition Concentration)): 5 µM | LC50 (50% lethal concentration) (PC-6 (lung carcinoma); PC-6, 72 hour, semi-quantitative, read-out: Estimated cIC50 (footnote c: LC50, 50% Lethal Concentration)): 32.5 µM | Percent Growth (Mean ± SEM, n = 2) ([5]; MCF-7, 0.01 μM): 97 ± 1% | Percent Growth (Mean ± SEM, n = 2) ([5]; MCF-7, 0.1 μM): 94 ± 7% | Percent Growth (Mean ± SEM, n = 2) ([5]; MCF-7, 1 μM): 85 ± 8% | Percent Growth (Mean ± SEM, n = 2) ([5]; MCF-7, 10 μM): −48 ± 11% | Percent Growth (Mean ± SEM, n = 2) ([5]; MCF-7, 100 μM): −100 ± 0% | Estimated TGI (Total Growth Inhibition) ([5]; MCF-7, 72 hour, semi-quantitative): 4.2 µM | IC50 ([5]; MCF-7, 72 hour, semi-quantitative, read-out: Estimated IC50 (50% Inhibition Concentration)): 2 µM | LC50 (50% lethal concentration) ([5]; MCF-7, 72 hour, semi-quantitative, read-out: Estimated cIC50 (footnote c: LC50, 50% Lethal Concentration)): 8.3 µM | IC50, concentration inhibiting 50% of the growth of KB-16 [6]: <1 ng/mL | IC50, concentration inhibiting 50% of the growth of HT-29 [7]: <1 ng/mL | Percent Growth (Mean ± SEM, n = 2) ([8]; HL-60, 0.01 μM): 99 ± 2% | Percent Growth (Mean ± SEM, n = 2) ([8]; HL-60, 0.1 μM): 90 ± 6% | Percent Growth (Mean ± SEM, n = 2) ([8]; HL-60, 1 μM): 73 ± 5% | Percent Growth (Mean ± SEM, n = 2) ([8]; HL-60, 10 μM): 9 ± 3% | Percent Growth (Mean ± SEM, n = 2) ([8]; HL-60, 100 μM): −100 ± 2% | Estimated TGI (Total Growth Inhibition) ([8]; HL-60, 72 hour, semi-quantitative): 8.3 µM | IC50 ([8]; HL-60, 72 hour, semi-quantitative, read-out: Estimated IC50 (50% Inhibition Concentration)): 3.2 µM | LC50 (50% lethal concentration) ([8]; HL-60, 72 hour, semi-quantitative, read-out: Estimated cIC50 (footnote c: LC50, 50% Lethal Concentration)): 22 µM | Percent Growth (Mean ± SEM, n = 2) ([9]; HT-29, 0.01 μM): 97 ± 4% | Percent Growth (Mean ± SEM, n = 2) ([9]; HT-29, 0.1 μM): 101 ± 8% | Percent Growth (Mean ± SEM, n = 2) ([9]; HT-29, 1 μM): 85 ± 3% | Percent Growth (Mean ± SEM, n = 2) ([9]; HT-29, 10 μM): −30 ± 15% | Percent Growth (Mean ± SEM, n = 2) ([9]; HT-29, 100 μM): −94 ± 3% | Estimated TGI (Total Growth Inhibition) ([9]; HT-29, 72 hour, semi-quantitative): 5.2 µM | IC50 ([9]; HT-29, 72 hour, semi-quantitative, read-out: Estimated IC50 (50% Inhibition Concentration)): 2.3 µM | LC50 (50% lethal concentration) ([9]; HT-29, 72 hour, semi-quantitative, read-out: Estimated cIC50 (footnote c: LC50, 50% Lethal Concentration)): 11.7 µM | Percent Growth (Mean ± SEM, n = 2) ([10]; PC-3, 0.01 μM): 100 ± 1% | Percent Growth (Mean ± SEM, n = 2) ([10]; PC-3, 0.1 μM): 94 ± 3% | Percent Growth (Mean ± SEM, n = 2) ([10]; PC-3, 1 μM): 82 ± 4% | Percent Growth (Mean ± SEM, n = 2) ([10]; PC-3, 10 μM): −17 ± 9% | Percent Growth (Mean ± SEM, n = 2) ([10]; PC-3, 100 μM): −93 ± 1% | Estimated TGI (Total Growth Inhibition) ([10]; PC-3, 72 hour, semi-quantitative): 6.2 µM | IC50 ([10]; PC-3, 72 hour, semi-quantitative, read-out: Estimated IC50 (50% Inhibition Concentration)): 2.5 µM | LC50 (50% lethal concentration) ([10]; PC-3, 72 hour, semi-quantitative, read-out: Estimated cIC50 (footnote c: LC50, 50% Lethal Concentration)): 15 µM | IC50, concentration inhibiting 50% of the growth of P-388 (P-388 (murine leukemia)): < 1 ng/mL
